Assay results taken from US8889878B2, “Haloalky-substituted amides as insecticides and acaricides” (Bayer CropScience AG, priority 2009, dated 2014).

Experiments:
[1] = logP by HPLC on reverse-phase column (EEC Directive 79/831 Annex V.A8); format: physicochemical
Experimental: The logP values reported in the above Tables and Preparation Examples were determined according to EEC Directive 79/831 Annex V.A8 by HPLC (High Performance Liquid Chromatography) on a reverse-phase column (C18). Temperature 43° C.

[2] = tested on: green peach aphid (Myzus persicae); assay: Myzus test (MYZUPE spray treatment), Example 17; format: in vivo; details: china cabbage leaf discs sprayed, after 6 days
Experimental: Myzus Test (MYZUPE Spray Treatment)
• Solvent: 78 parts by weight of acetone • 1.5 parts by weight of dimethylformamide • Emulsifier: 0.5 part by weight of alkylaryl polyglycol ether
To prepare an appropriate active ingredient formulation, 1 part by weight of active ingredient is mixed with the stated amounts of solvent and emulsifier, and the concentrate is diluted with emulsifier-containing water to the desired concentration. Leaf discs from china cabbage (Brassica pekinensis) infested by all stages of the green peach aphid (Myzus persicae) are sprayed with an active ingredient formulation of the desired concentration.
After 6 days, the efficacy in % is determined. 100% means that all aphids were killed; 0% means that no aphids were killed.

[3] = tested on: armyworm (Spodoptera frugiperda); assay: Spodoptera frugiperda test (SPODFR spray treatment), Example 15; format: in vivo; details: maize leaf discs sprayed, after 7 days
Summary of the method: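 Maize leaf discs sprayed with active ingredient in acetone/DMF with alkylaryl polyglycol ether emulsifier, diluted in water, then populated with caterpillars after drying. Efficacy in % after 7 days: 100% all caterpillars killed, 0% none.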

[4] = tested on: mustard beetle (Phaedon cochleariae); assay: Phaedon test (PHAECO spray treatment), Example 7; format: in vivo; details: application rate 20 g/ha, china cabbage leaf discs sprayed, after 7 days
Experimental: Phaedon Test (PHAECO Spray Treatment)
• Solvent: 78.0 parts by weight of acetone • 1.5 parts by weight of dimethylformamide • Emulsifier: 0.5 part by weight of alkylaryl polyglycol ether
To prepare an active ingredient formulation, 1 part by weight of active ingredient is mixed with the stated amounts of solvent and emulsifier, and the concentrate is diluted with emulsifier-containing water to the desired concentration. Leaf discs from china cabbage (Brassica pekinensis) are sprayed with an active ingredient formulation of the desired concentration and, after drying, populated with larvae of the mustard beetle (Phaedon cochleariae).
After 7 days, the efficacy in % is determined. 100% means that all beetle larvae were killed; 0% means that no beetle larvae were killed.

[5] = HPLC-MS, HPLC on reverse-phase column
[6] = HPLC, C18 reverse phase, 43° C., acidic range pH 2.7, calibration with alkan-2-ones

## O=C(/C=C/c1ccc(C(=O)NC2CC2)c(C(F)(F)F)c1)NC(c1cccc(SC(F)(F)F)c1)C(F)(F)F (stereo not drawn) [Ia-256]
[1]; HPLC-MS
  logP: HPLC-MS: logP = 3.51; mass
[2]; application rate 100 g/ha
  efficacy in %: 100%
[3]; application rate 100 g/ha
  efficacy in %: 100%

## CCC(=O)NCc1ccc(/C=C/C(=O)NC(c2ccc(F)c(Cl)c2)C(F)(F)F)cc1C(F)(F)F (stereo not drawn) [Ia-251]
[1]; HPLC-MS
  logP: HPLC-MS: logP = 3.47; mass
[2]; application rate 100 g/ha
  efficacy in %: 80%
[3]; application rate 100 g/ha
  efficacy in %: 100%

## CC(C)ONC(=O)c1ccc(/C=C/C(=O)NC(c2cccc(C(F)(F)F)c2)C(F)(F)F)cc1Cl (racemic) [Ia-194]
[1]; HPLC-MS
  logP: HPLC-MS: logP = 3.29; mass
[2]; application rate 100 g/ha
  efficacy in %: 90%

## O=C(/C=C/c1ccc(C(=O)NC2CCC2)c(Br)c1)NC(c1cccc(C(F)(F)F)c1)C(F)(F)F (stereo not drawn) [Ia-179]
[1]; HPLC-MS
  logP: HPLC-MS: logP = 3.61; mass
[2]; application rate 100 g/ha
  efficacy in %: 90%
[3]; application rate 100 g/ha
  efficacy in %: 83%

## CN(C)NC(=O)c1ccc(/C=C/C(=O)NC(c2cccc(C(F)(F)F)c2)C(F)(F)F)cc1C(F)(F)F (stereo not drawn) [Ia-131]
[1]; HPLC-MS
  logP: HPLC-MS: logP = 3.05; mass
[2]; application rate 100 g/ha
  efficacy in %: 100%
[3]; application rate 100 g/ha
  efficacy in %: 100%

## O=C(/C=C/c1ccc(C(=O)Nc2ccncn2)c(Cl)c1)NC(c1cccc(C(F)(F)F)c1)C(F)(F)F (stereo not drawn) [Ia-184]
[1]; HPLC-MS
  logP: HPLC-MS: logP = 3.22; mass
[2]; application rate 100 g/ha
  efficacy in %: 100%

## O=C(/C=C/c1ccc(C(=O)Nc2ncccn2)c(Cl)c1)NC(c1cccc(C(F)(F)F)c1)C(F)(F)F (racemic) [Ia-197]
[1]; HPLC-MS
  logP: HPLC-MS: logP = 2.95; mass
[2]; application rate 100 g/ha
  efficacy in %: 90%

## O=C(/C=C/c1ccc(C(=O)NCc2ccco2)c(C(F)(F)F)c1)NC(c1cccc(C(F)(F)F)c1)C(F)(F)F (stereo not drawn) [Ia-169]
[1]; HPLC-MS
  logP: HPLC-MS: logP = 3.63; mass
[2]; application rate 100 g/ha
  efficacy in %: 100%

## O=C(/C=C/c1ccc(C(=O)NC2CC2)c(C(F)(F)F)c1)NC(c1ccc(F)c(C(F)(F)F)c1)C(F)(F)F (stereo not drawn) [Ia-280]
[1]; [5]
  logP: HPLC-MS: logP = 3.46; mass
[2]; application rate 100 g/ha
  efficacy in %: 100%
[3]; application rate 100 g/ha
  efficacy in %: 100%

## CC(=O)N(Cc1ccc(/C=C/C(=O)NC(c2cccc(C(F)(F)F)c2)C(F)(F)F)cc1)Cc1ccccn1 (stereo not drawn) [Ia-254]
[1]; HPLC-MS
  logP: HPLC-MS: logP = 2.65; mass
[2]; application rate 100 g/ha
  efficacy in %: 80%

## COC(=O)N(C)NC(=O)c1ccc(/C=C/C(=O)NC(c2cccc(C(F)(F)F)c2)C(F)(F)F)cc1C(F)(F)F (stereo not drawn) [Ia-170]
[1]; HPLC-MS
  logP: HPLC-MS: logP = 3.23; mass
[2]; application rate 100 g/ha
  efficacy in %: 100%
[3]; application rate 100 g/ha
  efficacy in %: 83%

## C/C(=C\C(=O)NC(c1cccc(C(F)(F)F)c1)C(F)(F)F)c1ccc(C(=O)NC(C)C)c(C(F)(F)F)c1 (stereo not drawn) [Id-4]
[1]; [6]
  logP: HPLC-MS: logP = 3.75; mass
[2]; application rate 100 g/ha
  efficacy in %: 90%

## CCC(=O)NCc1ccc(/C=C/C(=O)NC(c2cccc(C(F)(F)F)c2)C(F)(F)F)cc1F (stereo not drawn) [Ia-276]
[1]; [5]
  logP: HPLC-MS: logP = 3.12; mass
[2]; application rate 100 g/ha
  efficacy in %: 100%
[3]; application rate 100 g/ha
  efficacy in %: 100%

## CCC(=O)NCc1ccc(/C=C/C(=O)NC(c2ccc(F)c(Cl)c2)C(F)(F)F)cc1F (stereo not drawn) [Ia-277]
[1]; [5]
  logP: HPLC-MS: logP = 3.06; mass
[2]; application rate 100 g/ha
  efficacy in %: 100%
[3]; application rate 100 g/ha
  efficacy in %: 100%

## CCC(=O)NCc1ccc(/C=C/C(=O)NC(c2ccc(F)c(C(F)(F)F)c2)C(F)(F)F)cc1 (stereo not drawn) [Ia-282]
[1]; [5]
  logP: HPLC-MS: logP = 3.11; mass
[2]; application rate 100 g/ha
  efficacy in %: 90%
[3]; application rate 100 g/ha
  efficacy in %: 100%

## O=C(NCc1ccc2oc(C(=O)NC(c3cccc(C(F)(F)F)c3)C(F)(F)F)cc2c1)c1ccccn1 (stereo not drawn) [Ic-12]
[1]; [6]
  logP: HPLC-MS: logP = 3.62; mass
[2]; application rate 500 g/ha
  efficacy in %: 80%

## CC(C)(C#N)NC(=O)c1ccc(/C=C/C(=O)NC(c2cccc(C(F)(F)F)c2)C(F)(F)F)cc1Cl (racemic) [Ia-195]
[1]; HPLC-MS
  logP: HPLC-MS: logP = 3.34; mass
[2]; application rate 100 g/ha
  efficacy in %: 100%
[3]; application rate 100 g/ha
  efficacy in %: 100%

## CC(C)NC(=O)c1ccc(/C=C/C(=O)NC(c2cccc(C(F)(F)F)c2)C(F)(F)F)cc1Br (stereo not drawn) [Ia-174]
[1]; HPLC-MS
  logP: HPLC-MS: logP = 3.48; mass
[2]; application rate 100 g/ha
  efficacy in %: 100%

## CN(C(=O)c1ccc(/C=C/C(=O)NC(c2cccc(C(F)(F)F)c2)C(F)(F)F)cc1C(F)(F)F)c1ccccn1 (stereo not drawn) [Ia-239]
[1]; HPLC-MS
  logP: HPLC-MS: logP = 2.07; mass
[2]; application rate 100 g/ha
  efficacy in %: 90%
[3]; application rate 100 g/ha
  efficacy in %: 100%

## O=C(/C=C/c1ccc(C(=O)NC2CC2)c(C(F)(F)F)c1)NC(c1ccc(F)c(Cl)c1)C(F)(F)F (stereo not drawn) [Ia-279]
[1]; [5]
  logP: HPLC-MS: logP = 3.33; mass
[2]; application rate 100 g/ha
  efficacy in %: 100%
[3]; application rate 100 g/ha
  efficacy in %: 100%

## CCn1c(C(=O)NC(c2cccc(C(F)(F)F)c2)C(F)(F)F)cc2cc(C(=O)NC3CC3)c(Cl)cc21 (racemic) [Ic-26]
[2]; application rate 100 g/ha
  efficacy in %: 100%
[3]; application rate 100 g/ha
  efficacy in %: 100%

## O=C(/C=C/c1ccc(C(=O)Nc2ccc(Cl)cn2)c(Cl)c1)NC(c1cccc(C(F)(F)F)c1)C(F)(F)F (stereo not drawn) [Ia-168]
[1]; HPLC-MS
  logP: HPLC-MS: logP = 4.28; mass
[2]; application rate 100 g/ha
  efficacy in %: 80%
[3]; application rate 100 g/ha
  efficacy in %: 100%

## O=C(/C=C/c1ccc(C(=O)NCC2CC2)c(Br)c1)NC(c1cccc(C(F)(F)F)c1)C(F)(F)F (stereo not drawn) [Ia-180]
[1]; HPLC-MS
  logP: HPLC-MS: logP = 3.55; mass
[2]; application rate 100 g/ha
  efficacy in %: 90%

## CCNC(=O)c1ccc(/C=C/C(=O)NC(c2cccc(C(F)(F)F)c2)C(F)(F)F)cc1C(F)(F)F (stereo not drawn) [Ia-64]
[1]; HPLC-MS
  logP: HPLC-MS: logP = 3.18; mass
[4]
  efficacy in %: 100%
[3]; application rate 500 g/ha
  efficacy in %: 83%

## O=C(/C=C/c1ccc(C(=O)NC2CC2)c(C(F)(F)F)c1)NC(c1ccc(Cl)c(Cl)c1)C(F)(F)F (stereo not drawn) [Ia-37]
[1]; HPLC-MS
  logP: HPLC-MS: logP = 3.41; mass
[4]
  efficacy in %: 100%

## C#CCNC(=O)c1ccc(/C=C/C(=O)NC(c2cccc(C(F)(F)F)c2)C(F)(F)F)cc1Br (stereo not drawn) [Ia-105]
[1]; HPLC-MS
  logP: HPLC-MS: logP = 3.09 mass
[4]
  efficacy in %: 100%

## CC(=O)N(Cc1ccccn1)Cc1ccc(/C=C/C(=O)NC(c2cccc(C(F)(F)F)c2)C(F)(F)F)cc1F (stereo not drawn) [Ia-252]
[1]; HPLC-MS
  logP: HPLC-MS: logP = 2.72; mass
[2]; application rate 100 g/ha
  efficacy in %: 100%
[3]; application rate 100 g/ha
  efficacy in %: 100%

## O=C(/C=C/c1ccc(C(=O)NC2CC2c2ccccc2)c(C(F)(F)F)c1)NC(c1cccc(C(F)(F)F)c1)C(F)(F)F (stereo not drawn) [Ia-71]
[1]; HPLC-MS
  logP: HPLC-MS: logP = 4.22; mass
[4]
  efficacy in %: 100%

## O=C(NC(c1ccc(Cl)c(Cl)c1)C(F)(F)F)c1cc2cc(Cl)c(C(=O)NC3CC3)cc2[nH]1 (stereo not drawn) [Ic-21]
[1]; [6]
  logP: HPLC-MS: logP = 3.28; mass
[4]
  efficacy in %: 100%

## O=C(/C=C/c1ccc(C(=O)NC(CF)CF)c(Br)c1)NC(c1cccc(C(F)(F)F)c1)C(F)(F)F (stereo not drawn) [Ia-175]
[1]; HPLC-MS
  logP: HPLC-MS: logP = 3.35; mass
[2]; application rate 100 g/ha
  efficacy in %: 100%
[3]; application rate 100 g/ha
  efficacy in %: 83%

## O=C(/C=C/c1ccc(C(=O)Nc2ccncc2)c(C(F)(F)F)c1)NC(c1cccc(C(F)(F)F)c1)C(F)(F)F (stereo not drawn) [Ia-84]
[1]; HPLC-MS
  logP: HPLC-MS: logP = 1.99 mass
[4]
  efficacy in %: 100%

## O=C(/C=C/c1ccc(C(=O)NC2CCOCC2)c(Cl)c1)NC(c1cccc(C(F)(F)F)c1)C(F)(F)F (stereo not drawn) [Ia-97]
[1]; HPLC-MS
  logP: HPLC-MS: logP = 2.99 mass
[4]
  efficacy in %: 100%

## CC(NC(=O)c1ccc(C=CC(=O)NC(c2cccc(C(F)(F)F)c2)C(F)(F)F)cc1Cl)c1nccs1 (mixture of isomers) [Ia-187]
[1]; HPLC-MS
  logP: HPLC-MS: logP = 3.4; mass
[2]; application rate 100 g/ha
  efficacy in %: 80%

## CC(C#N)NC(=O)c1ccc(/C=C/C(=O)NC(c2cccc(C(F)(F)F)c2)C(F)(F)F)cc1Cl (stereo not drawn) [Ia-160]
[1]; HPLC-MS
  logP: HPLC-MS: logP = 3.23; mass
[2]; application rate 100 g/ha
  efficacy in %: 100%
